Data from US12540141B2, “Spiropyrrolidine derived antiviral agents” (priority 2020, dated 2026).
pIC50: −log10 of the molar value.

target: SARS-CoV-2 3CL-protease (Severe acute respiratory syndrome coronavirus 2, UniProt P0DTD1); experiment: SARS-CoV-2 3C-Like (3CL) Protease Fluorescence Assay (FRET); format: biochemical; details: SARS-CoV-2 3CL-protease 10 nM, 30 min preincubation at RT, substrate 40 μM

`C[C@@H](C(=O)N(C)[C@@H](CC(C)(C)C)C(=O)N1C[C@]2(C[C@H]1C#N)C(=O)Nc1ccccc12)c1cnn(C)c1` [Example 372] and `CC(C)C[C@@H](C(=O)N1C[C@]2(C[C@H]1C#N)C(=O)Nc1ccccc12)N(C)C(=O)[C@@H](c1cnn(C)c1)C(C)C` [Example 348] cannot be ordered by pIC50: > 7.00 for the first, > 7.00 for the second.

`COc1cc(C(=O)N(C)[C@@H](CC(C)C)C(=O)N2C[C@]3(C[C@H]2C#N)C(=O)Nc2ccccc23)cc2cn(C3(C)CC3)nc12` [Example 319] and `CC(C)C[C@@H](C(=O)N1C[C@]2(C[C@H]1C#N)C(=O)Nc1ccccc12)N(C)C(=O)c1cc(F)c2nn(C)cc2c1` [Example 309] cannot be ordered by pIC50: > 7.00 for the first, > 7.00 for the second.

`CC(C)C[C@@H](C(=O)N1C[C@]2(C[C@H]1C#N)C(=O)Nc1ccccc12)N(C)C(=O)c1nc2c(F)cc(F)cc2[nH]1` [Example 269] and `CC(C)C[C@@H](C(=O)N1C[C@]2(C[C@H]1C#N)C(=O)Nc1ccccc12)N(C)C(=O)c1cc2cc(F)c(F)c(F)c2[nH]1` [Example 333] cannot be ordered by pIC50: > 7.00 for the first, > 7.00 for the second.

`COc1ccc(Cl)cc1C(=O)N(C)[C@@H](CC(C)C)C(=O)N1C[C@]2(C[C@H]1C#N)C(=O)Nc1ccccc12` [Example 170] and `CC(C)C[C@@H](C(=O)N1C[C@]2(C[C@H]1C#N)C(=O)Nc1ccccc12)N(C)C(=O)c1cccc(Cl)c1` [Example 167] cannot be ordered by pIC50: > 7.00 for the first, > 7.00 for the second.

`CC(C)(C)C[C@H](NC(=O)NC1CCCCC1)C(=O)N1C[C@]2(C[C@H]1C#N)C(=O)Nc1ccccc12` [Example 440] and `CC(C)(C)C[C@H](NC(=O)c1cc(Cl)c2ncccc2c1)C(=O)N1C[C@]2(C[C@H]1C#N)C(=O)Nc1ccccc12` [Example 138] cannot be ordered by pIC50: > 7.00 for the first, > 7.00 for the second.

First: Cc1ccc2cc(C(=O)N(C)[C@@H](CC(C)C)C(=O)N3C[C@]4(C[C@H]3C#N)C(=O)Nc3ccccc34)ccc2n1 [Example 234]
Second: CC(C)C[C@@H](C(=O)N1C[C@]2(C[C@H]1C#N)C(=O)Nc1ccccc12)N(C)C(=O)c1ccc2ccccc2c1 [Example 219]
The pIC50 of the first is higher: > 7.00 for the first, 6.00 to 7.00 for the second. The first is the more potent here.

`CC(C)C[C@@H](C(=O)N1C[C@]2(C[C@H]1C#N)C(=O)Nc1ccccc12)N(C)C(=O)c1cc2ccccc2o1` [Example 208] and `CC(C)C[C@@H](C(=O)N1C[C@]2(C[C@H]1C#N)C(=O)Nc1ccccc12)N(C)C(=O)c1cc2ccccc2s1` [Example 207] cannot be ordered by pIC50: > 7.00 for the first, > 7.00 for the second.

`CC(C)C[C@@H](C(=O)N1C[C@]2(C[C@H]1C#N)C(=O)Nc1ncccc12)N(C)C(=O)c1cc2c(F)cc(F)cc2[nH]1` [Example 549] and `CCCOC[C@@H](C(=O)N1C[C@]2(C[C@H]1C#N)C(=O)Nc1ccccc12)N(C)C(=O)c1cc2c(F)cc(F)cc2[nH]1` [Example 413, N—((S)-1-((3R,5′S)-5′-cyano-2-oxospiro[indoline-3,3′-pyrrolidin]-1′-yl)-1-oxo-3-propoxypropan-2-yl)-4,6-difluoro-N-methyl-1H-indole-2-carboxamide] cannot be ordered by pIC50: > 7.00 for the first, > 7.00 for the second.

Compared with `CC(C)C[C@@H](C(=O)N1C[C@]2(C[C@H]1C#N)C(=O)Nc1ccccc12)N(C)C(=O)c1cccc(OC(F)(F)F)c1` [Example 189], `CC(C)C[C@@H](C(=O)N1C[C@]2(C[C@H]1C#N)C(=O)Nc1ccccc12)N(C)C(=O)c1ccc(OC(F)(F)F)c(F)c1` [Example 179] is higher in pIC50: 6.00 to 7.00 for the first, > 7.00 for the second. The second is the more potent here.

`CN(C(=O)c1cn(C2CC2)nn1)[C@@H](Cc1ccccc1)C(=O)N1C[C@]2(C[C@H]1C#N)C(=O)Nc1ccccc12` [Example 359] and `[2H]C([2H])([2H])N(C(=O)c1cn(C2CC2)nn1)[C@@H](Cc1ccc(F)cc1)C(=O)N1C[C@]2(C[C@H]1C#N)C(=O)Nc1ccccc12` [Example 391] cannot be ordered by pIC50: > 7.00 for the first, > 7.00 for the second.

`CN(C(=O)[C@H](O)Cc1ccc(F)cc1)[C@@H](CC1CC1)C(=O)N1C[C@]2(C[C@H]1C#N)C(=O)Nc1ccccc12` [Example 423] and `CCCC[C@H](NC(=O)[C@H](O)c1ccc(F)cc1)C(=O)N1C[C@]2(C[C@H]1C#N)C(=O)Nc1ccccc12` [Example 419] cannot be ordered by pIC50: > 7.00 for the first, > 7.00 for the second.

First: CC(C)C[C@@H](C(=O)N1C[C@]2(C[C@H]1C#N)C(=O)Nc1ccccc12)N(C)C(=O)c1ccc2ccccc2n1 [Example 211]
Second: CC(C)C[C@@H](C(=O)N1C[C@]2(C[C@H]1C#N)C(=O)Nc1ccccc12)N(C)C(=O)c1ccnc2ccccc12 [Example 294]
The pIC50 of the first is lower: 6.00 to 7.00 for the first, > 7.00 for the second.

`CC(C)C[C@@H](C(=O)N1C[C@]2(C[C@H]1C#N)C(=O)Nc1ccccc12)N(C)C(=O)c1ccnc2cccc(F)c12` [Example 306] and `CC(C)C[C@@H](C(=O)N1C[C@]2(C[C@H]1C#N)C(=O)Nc1ccccc12)N(C)C(=O)c1cccc2ncccc12` [Example 214] cannot be ordered by pIC50: > 7.00 for the first, > 7.00 for the second.

`CN(C(=O)C(F)(F)c1cccnc1)[C@@H](CC(C)(C)F)C(=O)N1C[C@]2(C[C@H]1C#N)C(=O)Nc1ccc(Cl)cc12` [Example 482] and `CN(C(=O)C1(c2cccnc2)CC1)[C@@H](CC(C)(C)F)C(=O)N1C[C@]2(C[C@H]1C#N)C(=O)Nc1ccc(Cl)cc12` [Example 479] cannot be ordered by pIC50: > 7.00 for the first, > 7.00 for the second.

Compared with `CC(C)C[C@@H](C(=O)N1C[C@]2(C[C@H]1C#N)C(=O)Nc1ccccc12)N(C)C(=O)c1ccc2ccsc2c1` [Example 246], `CC(C)C[C@@H](C(=O)N1C[C@]2(C[C@H]1C#N)C(=O)Nc1ccccc12)N(C)C(=O)c1ccc2cnn(C)c2c1` [Example 224] is higher in pIC50: 6.00 to 7.00 for the first, > 7.00 for the second. The second is the more potent here.

`Cc1cccc2c1NC(=O)[C@]21C[C@@H](C#N)N(C(=O)[C@H](CC(C)C)NC(=O)c2cc3c(F)cccc3[nH]2)C1` [Example 534] and `N#C[C@@H]1C[C@@]2(CN1C(=O)[C@H](Cc1ccc(F)cc1)NC(=O)c1cc3c(F)cc(F)cc3[nH]1)C(=O)Nc1ccc(Cl)cc12` [Example 452] cannot be ordered by pIC50: > 7.00 for the first, > 7.00 for the second.

First: CN(C(=O)CCN1CCC1)[C@@H](CC(C)(C)F)C(=O)N1C[C@]2(C[C@H]1C#N)C(=O)Nc1ccccc12 [Example 540]
Second: C=CC(=O)N(C)[C@@H](CC(C)(C)F)C(=O)N1C[C@]2(C[C@H]1C#N)C(=O)Nc1ccccc12 [Example 535, N—((S)-1-((3R,5′S)-5′-cyano-2-oxospiro[indoline-3,3′-pyrrolidin]-1′-yl)-4-fluoro-4-methyl-1-oxopentan-2-yl)-N-methylacrylamide]
The pIC50 of the first is higher: > 7.00 for the first, 6.00 to 7.00 for the second. The first is the more potent here.

First: Cc1cc2cc(C(=O)N(C)[C@@H](CC(C)C)C(=O)N3C[C@]4(C[C@H]3C#N)C(=O)Nc3ccccc34)cc(OC3CC3)c2nc1C [Example 323]
Second: CC(C)C[C@@H](C(=O)N1C[C@]2(C[C@H]1C#N)C(=O)Nc1ccccc12)N(C)C(=O)c1cc(OC2CC2)c2ncc(C3CC3)cc2c1 [Example 324]
The pIC50 of the first is higher: > 7.00 for the first, 6.00 to 7.00 for the second. The first is the more potent here.

First: CN(C(=O)c1cc2c(F)cc(F)c(F)c2[nH]1)[C@@H](CC(C)(C)O)C(=O)N1C[C@]2(C[C@H]1C#N)C(=O)Nc1ccccc12 [Example 444]
Second: CN(C(=O)c1cc2c(F)cc(F)cc2[nH]1)[C@@H](Cc1cccc(F)c1)C(=O)N1C[C@]2(C[C@H]1C#N)C(=O)Nc1ccccc12 [Example 389]
The pIC50 of the first is lower: 6.00 to 7.00 for the first, > 7.00 for the second.

`[2H]C([2H])([2H])N(C(=O)c1cn(C2CCC2)nn1)[C@@H](CCCC)C(=O)N1C[C@]2(C[C@H]1C#N)C(=O)Nc1ccccc12` [Example 392] and `CC(C)C[C@@H](C(=O)N1C[C@]2(C[C@H]1C#N)C(=O)Nc1ccccc12)N(C)C(=O)c1nnc(C2CC2)o1` [Example 354] cannot be ordered by pIC50: > 7.00 for the first, > 7.00 for the second.

`CC(C)C[C@@H](C(=O)N1C[C@]2(C[C@H]1C#N)C(=O)Nc1ccc(-c3cn(-c4ccccn4)nn3)cc12)N(C)C(=O)c1cc2c(F)cc(F)cc2[nH]1` [Example 507] and `CC(C)C[C@@H](C(=O)N1C[C@]2(C[C@H]1C#N)C(=O)Nc1ccccc12)N(C)C(=O)c1cc2cccnc2cc1F` [Example 275] cannot be ordered by pIC50: > 7.00 for the first, > 7.00 for the second.

`CC(C)C[C@@H](C(=O)N1C[C@]2(C[C@H]1C#N)C(=O)Nc1ccccc12)N(C)C(=O)c1ccnn1C` [Example 203] and `CC(C)C[C@@H](C(=O)N1C[C@]2(C[C@H]1C#N)C(=O)Nc1ccccc12)N(C)C(=O)c1nnn(C(C)(C)C)n1` [Example 356] cannot be ordered by pIC50: > 7.00 for the first, > 7.00 for the second.

`CC(C)C[C@@H](C(=O)N1C[C@]2(C[C@H]1C#N)C(=O)Nc1ccccc12)N(C)C(=O)C[C@H](Cc1cc(F)c(F)cc1F)NC(=O)OC(C)(C)C` [Example 291] and `CC(C)C[C@@H](C(=O)N1C[C@]2(C[C@H]1C#N)C(=O)Nc1ccccc12)N(C)C(=O)C[C@@H](Cc1cc(F)c(F)cc1F)NC(=O)OC(C)(C)C` [Example 289] cannot be ordered by pIC50: > 7.00 for the first, > 7.00 for the second.

`CC(C)C[C@@H](C(=O)N1C[C@]2(C[C@H]1C#N)C(=O)Nc1ccccc12)N(C)C(=O)c1cc(OC2CC2)n2nc(C3CC3)cc2c1` [Example 315] and `CC(C)C[C@@H](C(=O)N1C[C@]2(C[C@H]1C#N)C(=O)Nc1ccccc12)N(C)C(=O)c1cc(Cl)c2[nH]c(C3CC3)nc2c1` [Example 256] cannot be ordered by pIC50: > 7.00 for the first, > 7.00 for the second.

First: CC(C)(F)C[C@H](NC(=O)COc1ccc(F)cc1F)C(=O)N1C[C@]2(C[C@H]1C#N)C(=O)Nc1ccc(Cl)cc12 [Example 445]
Second: CN(C(=O)c1cc2cccnc2[nH]1)[C@@H](CC(C)(C)F)C(=O)N1C[C@]2(C[C@H]1C#N)C(=O)Nc1ccc(Cl)cc12 [Example 470]
The pIC50 of the first is lower: 6.00 to 7.00 for the first, > 7.00 for the second.

Compared with `CC(C)C[C@@H](C(=O)N1C[C@]2(C[C@H]1C#N)C(=O)Nc1ccccc12)N(C)C(=O)c1ccc2nccnc2c1` [Example 297], `CC(C)C[C@@H](C(=O)N1C[C@]2(C[C@H]1C#N)C(=O)Nc1ccccc12)N(C)C(=O)c1cc2nccnc2[nH]1` [Example 490] is higher in pIC50: 6.00 to 7.00 for the first, > 7.00 for the second.

`Cc1cnc2[nH]c(C(=O)N(C)[C@@H](CC3CC3)C(=O)N3C[C@]4(C[C@H]3C#N)C(=O)Nc3ccc(Cl)cc34)cc2c1` [Example 461] and `CN(C(=O)c1cc2ccncc2[nH]1)[C@@H](CC1CC1)C(=O)N1C[C@]2(C[C@H]1C#N)C(=O)Nc1ccc(Cl)cc12` [Example 458] cannot be ordered by pIC50: > 7.00 for the first, > 7.00 for the second.

First: CC(C)C[C@@H](C(=O)N1C[C@]2(C[C@H]1C#N)C(=O)Nc1ccccc12)N(C(=O)OCc1ccccc1)C(C)C [Example 160]
Second: Cc1cc(F)c(C(=O)N(C)[C@@H](CC(C)C)C(=O)N2C[C@]3(C[C@H]2C#N)C(=O)Nc2ccccc23)cc1-c1cnn(C2CC2)c1 [Example 342]
The pIC50 of the first is lower: < 6.00 for the first, > 7.00 for the second.

For `CC(C)(C)C[C@H](NC(=O)c1cnn(CC(F)(F)F)c1)C(=O)N1C[C@]2(C[C@H]1C#N)C(=O)Nc1ccccc12` [Example 144], the pIC50 was > 7.00.
